Experimental data as given in paper PMC12968138, “CreSAMT1 is mainly responsible for the biosynthesis of characteristic aroma compound dimethyl anthranilate in Citrus reticulata ‘Chachiensis’” (Horticulture Research, 2025).

Key:
CreSAMT1 = tested on: T1, CreSAMT1; assay: GC-MS of methyl ester product, Michaelis-Menten fit; assay type: biochemical, Citrus reticulata; settings: co-substrate SAM, Tris-HCl, KCl, pH 7.0, 35 °C
T1 construct: His-tagged (pET6xHN), E. coli BL21(DE3), Ni-IDA purified; tag cleavage not mentioned
Description: GC-MS of methyl ester product, Michaelis-Menten fit on CreSAMT1

CreSAMT2 = tested on: T2, CreSAMT2; assay: as above; assay type: biochemical, Citrus reticulata; settings: co-substrate SAM, Tris-HCl, KCl, pH 7.0, 25 °C
T2 construct: His-tagged (pET6xHN), E. coli BL21(DE3), Ni-IDA purified; tag cleavage not mentioned
Description: GC-MS of methyl ester product, Michaelis-Menten fit on CreSAMT2

Row | Compound | Km (CreSAMT1; sodium salt used) [µM] | Km (CreSAMT2; sodium salt used) [µM] | Km (CreSAMT1) [µM] | Km (CreSAMT2) [µM]
1 | Nc1ccccc1C(=O)O [AA, anthranilate] | 4.82 ± 1.53 | 18 ± 1.9 | – | –
2 | O=C(O)c1ccccc1 [BA, benzoic acid] | – | – | 61.9 ± 30.7 | 25 ± 6.89
3 | CNc1ccccc1C(=O)O [NMA, N-methyl-2-aminobenzoic acid] | – | – | 164 ± 98.4 | 128 ± 58.9
4 | O=C(O)c1ccccc1O [SA, salicylic acid] | – | – | 101 ± 33.5 | 53 ± 11.2
